Measured values reported in ChEMBL document CHEMBL2385071, “Synthesis and biological investigation of coumarin piperazine (piperidine) derivatives as potential multireceptor atypical antipsychotics” (J Med Chem, 2013).
pKi: −log10 of the molar value.

Experiments:
[1] = target: T1, 5-hydroxytryptamine receptor 1A (Rattus norvegicus, UniProt P19327); test: biochemical
T1 sequence (P19327 whole entry): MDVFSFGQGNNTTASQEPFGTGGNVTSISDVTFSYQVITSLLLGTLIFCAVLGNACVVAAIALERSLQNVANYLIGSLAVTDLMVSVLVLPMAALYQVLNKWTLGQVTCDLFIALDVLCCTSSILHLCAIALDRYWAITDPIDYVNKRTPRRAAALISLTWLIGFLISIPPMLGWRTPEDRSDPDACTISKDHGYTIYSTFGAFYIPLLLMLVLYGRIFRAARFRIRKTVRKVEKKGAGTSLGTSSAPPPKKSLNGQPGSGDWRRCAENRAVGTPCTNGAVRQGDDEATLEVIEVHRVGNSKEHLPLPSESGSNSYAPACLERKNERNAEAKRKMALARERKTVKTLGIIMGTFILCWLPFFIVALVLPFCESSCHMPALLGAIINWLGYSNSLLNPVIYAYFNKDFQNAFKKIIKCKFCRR
Description: Displacement of [3H]8-OH-DPAT from 5HT1A receptor in rat cerebral cortex after 30 mins by liquid scintillation counting analysis

[2] = target: D(2) dopamine receptor (Rattus norvegicus, UniProt P61169)
[3] = target: 5-hydroxytryptamine receptor 2A (Rattus norvegicus, UniProt P14842); test: Displacement of [3H]ketanserin from 5HT2A receptor in rat cerebral cortex after 15 mins by liquid scintillation counting analysis; type: tissue-based
[4] = target: 5-hydroxytryptamine receptor 2A (Homo sapiens, UniProt P28223); test: Binding affinity to 5HT2A receptor (unknown origin)
[5] = target: D(2) dopamine receptor (Homo sapiens, UniProt P14416)
[6] = target: T2, Alpha-1A adrenergic receptor (Homo sapiens, UniProt P35348); test: Binding affinity to alpha-1A adrenergic receptor (unknown origin); settings: read-out: pA2 (converted)
T2 sequence (P35348 whole entry): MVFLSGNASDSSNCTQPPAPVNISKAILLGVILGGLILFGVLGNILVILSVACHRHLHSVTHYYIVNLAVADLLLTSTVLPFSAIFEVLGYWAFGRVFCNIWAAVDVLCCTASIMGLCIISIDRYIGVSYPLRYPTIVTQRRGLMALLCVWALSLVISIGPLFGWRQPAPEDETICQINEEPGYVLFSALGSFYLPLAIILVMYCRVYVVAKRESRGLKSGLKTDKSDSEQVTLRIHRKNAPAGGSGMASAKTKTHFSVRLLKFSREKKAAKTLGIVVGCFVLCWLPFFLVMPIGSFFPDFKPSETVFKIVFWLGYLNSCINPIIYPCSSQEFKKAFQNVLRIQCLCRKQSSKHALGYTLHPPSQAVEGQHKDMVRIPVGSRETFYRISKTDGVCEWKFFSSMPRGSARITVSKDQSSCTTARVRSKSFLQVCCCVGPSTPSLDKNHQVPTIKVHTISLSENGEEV

[7] = in vivo; settings: mouse, po
[8] = organism: Mus musculus; test: animal or person; settings: po
Description: Antipsychotic activity in po dosed mouse assessed as reduction in apomorphine-induced climbing behavior administered for 30 mins prior to apomorphine-challenge measured at 10 to 30 mins post-dose

[9] = test system: Mus musculus; test: Toxicity in po dosed mouse assessed as induction of catalepsy; type: organism-based; settings: in vivo
[10] = in vivo; settings: mouse, po; remark: listed apart in the source
Description: Therapeutic Index, ratio of ED50 for catalepsy in mouse to ED50 for antipsychotic activity in po dosed mouse assessed as reduction in apomorphine-induced climbing behavior

[11] = organism: Mus musculus; test: animal or person; settings: po; remark: listed apart in the source

5-hydroxytryptamine receptor 2A (Rattus norvegicus, UniProt P14842), sequence (P14842 whole entry): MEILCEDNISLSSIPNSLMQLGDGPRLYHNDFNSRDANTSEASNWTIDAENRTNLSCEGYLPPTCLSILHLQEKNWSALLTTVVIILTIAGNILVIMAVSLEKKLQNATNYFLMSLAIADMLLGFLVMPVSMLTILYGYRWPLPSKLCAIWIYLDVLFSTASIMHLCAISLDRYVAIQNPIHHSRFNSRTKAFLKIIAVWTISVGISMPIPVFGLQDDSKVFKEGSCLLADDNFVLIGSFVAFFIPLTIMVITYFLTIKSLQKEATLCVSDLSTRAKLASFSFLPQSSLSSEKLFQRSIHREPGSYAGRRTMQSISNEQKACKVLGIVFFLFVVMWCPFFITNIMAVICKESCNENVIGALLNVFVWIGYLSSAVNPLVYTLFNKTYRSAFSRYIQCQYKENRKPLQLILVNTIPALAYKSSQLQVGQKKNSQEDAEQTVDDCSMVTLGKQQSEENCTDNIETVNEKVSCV
D(2) dopamine receptor (Rattus norvegicus, UniProt P61169), sequence (P61169 whole entry): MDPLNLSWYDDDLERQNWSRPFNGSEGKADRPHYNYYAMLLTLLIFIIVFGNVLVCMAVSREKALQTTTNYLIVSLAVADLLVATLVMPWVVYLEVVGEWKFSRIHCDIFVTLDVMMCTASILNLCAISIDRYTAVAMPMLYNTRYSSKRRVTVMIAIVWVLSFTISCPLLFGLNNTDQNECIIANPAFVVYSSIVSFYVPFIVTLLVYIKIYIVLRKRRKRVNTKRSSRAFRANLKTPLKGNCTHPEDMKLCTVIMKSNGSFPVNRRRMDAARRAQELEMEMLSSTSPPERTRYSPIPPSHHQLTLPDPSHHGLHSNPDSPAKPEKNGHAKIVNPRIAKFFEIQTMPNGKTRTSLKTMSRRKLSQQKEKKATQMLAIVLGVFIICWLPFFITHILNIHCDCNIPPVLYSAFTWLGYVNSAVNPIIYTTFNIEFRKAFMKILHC
D(2) dopamine receptor (Homo sapiens, UniProt P14416), sequence (P14416 whole entry): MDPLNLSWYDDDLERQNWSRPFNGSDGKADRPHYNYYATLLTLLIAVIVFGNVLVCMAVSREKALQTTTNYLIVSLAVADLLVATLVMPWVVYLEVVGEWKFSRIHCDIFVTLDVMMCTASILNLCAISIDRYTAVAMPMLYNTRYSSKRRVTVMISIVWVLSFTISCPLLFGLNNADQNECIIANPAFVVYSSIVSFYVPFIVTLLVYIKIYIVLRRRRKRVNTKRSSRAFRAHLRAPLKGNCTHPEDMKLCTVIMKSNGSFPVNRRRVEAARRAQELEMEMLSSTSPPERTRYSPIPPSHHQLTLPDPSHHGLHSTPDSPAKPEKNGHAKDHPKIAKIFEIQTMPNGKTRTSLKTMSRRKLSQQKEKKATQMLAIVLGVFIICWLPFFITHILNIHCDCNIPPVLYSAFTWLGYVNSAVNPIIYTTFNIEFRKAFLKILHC
5-hydroxytryptamine receptor 2A (Homo sapiens, UniProt P28223), sequence (P28223 whole entry): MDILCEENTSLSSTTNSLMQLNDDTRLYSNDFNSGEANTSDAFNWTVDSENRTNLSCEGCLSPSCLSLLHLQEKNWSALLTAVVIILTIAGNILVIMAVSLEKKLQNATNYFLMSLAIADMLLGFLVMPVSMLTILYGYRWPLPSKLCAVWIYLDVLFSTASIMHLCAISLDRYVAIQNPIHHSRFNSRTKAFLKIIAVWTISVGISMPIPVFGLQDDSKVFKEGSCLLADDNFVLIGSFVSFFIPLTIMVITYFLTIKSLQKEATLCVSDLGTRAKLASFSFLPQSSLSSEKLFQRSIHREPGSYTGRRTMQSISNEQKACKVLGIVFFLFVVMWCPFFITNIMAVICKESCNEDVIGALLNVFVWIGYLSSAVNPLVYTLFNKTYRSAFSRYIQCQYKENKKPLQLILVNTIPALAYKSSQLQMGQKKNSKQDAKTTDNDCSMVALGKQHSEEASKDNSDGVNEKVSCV

| Compound | pKi [1] | pKi [2] | pKi [3] | further results |
| --- | --- | --- | --- | --- |
| COc1ccccc1N1CCN(CCCCOc2ccc3c(C)c(C)c(=O)oc3c2)CC1 | < 5.00 | < 5.00 | 7.23 |  |
| COc1cccc(-c2cc(=O)oc3cc(OCCCCN4CCC(c5noc6cc(F)ccc56)CC4)ccc23)c1 | < 5.00 | 6.10 | < 5.00 |  |
| COc1ccccc1N1CCN(CCCCOc2ccc3c(C(F)(F)F)cc(=O)oc3c2)CC1 | 7.38 | < 5.00 | 6.09 |  |
| COc1ccccc1N1CCN(CCCCOc2ccc3c(CO)cc(=O)oc3c2)CC1 | < 5.00 | < 5.00 | < 5.00 |  |
| COc1ccccc1N1CCN(CCCCOc2ccc3c(C)cc(=O)oc3c2C)CC1 | 6.95 | 6.07 | 6.03 |  |
| Cc1cc(=O)oc2cc(OCCCN3CCC(c4noc5cc(F)ccc45)CC3)ccc12 | 6.48 | 6.93 | 6.85 |  |
| Cc1ccc(S(=O)(=O)N2CCN(CCCCOc3ccc4c(C)cc(=O)oc4c3)CC2)cc1 | 5.92 | 5.80 | < 5.00 |  |
| O=c1cc(C(F)(F)F)c2ccc(OCCCCN3CCC(c4noc5cc(F)ccc45)CC3)cc2o1 | 7.37 | 5.52 | 6.64 |  |
| Cc1cc(=O)oc2cc(OC/C=C/CN3CCC(c4noc5cc(F)ccc45)CC3)ccc12 | 7.35 | 7.77 | 9.30 |  |
| Cc1cc(=O)oc2cc(OCCCCN3CCC(c4nc5ccccc5s4)CC3)ccc12 | 6.84 | 6.62 | 6.67 |  |
| Cc1cc(=O)oc2cc(OCCCCN3CCN(c4nsc5ccccc45)CC3)ccc12 | 6.95 | 6.75 | 6.98 |  |
| O=c1cc(-c2ccccc2)c2ccc(OCC(O)CN3CCC(c4noc5cc(F)ccc45)CC3)cc2o1 (stereo unspecified) | 6.16 | 6.01 | 5.80 |  |
| O=c1cc(C2CC2)c2ccc(OCCCCN3CCC(c4noc5cc(F)ccc45)CC3)cc2o1 | < 5.00 | < 5.00 | < 5.00 |  |
| COc1ccc(N2CCN(CCCCOc3ccc4c(C)cc(=O)oc4c3)CC2)cc1 | 6.28 | 6.38 | 5.99 |  |
| Cc1cccc(N2CCN(CCCCOc3ccc4c(C)cc(=O)oc4c3)CC2)c1C | 7.32 | 5.86 | 6.59 |  |
| Cc1cc(=O)oc2cc(OCCCCN3CCC(c4nc5ccccc5o4)CC3)ccc12 | 5.86 | < 5.00 | 5.81 |  |
| O=c1cc(-c2ccc(F)cc2)c2ccc(OCCCCN3CCC(c4noc5cc(F)ccc45)CC3)cc2o1 | < 5.00 | 6.20 | < 5.00 |  |
| O=c1cc(-c2cccs2)c2ccc(OCCCCN3CCC(c4noc5cc(F)ccc45)CC3)cc2o1 | < 5.00 | 5.63 | < 5.00 |  |
| CCCc1cc(=O)oc2cc(OCCCCN3CCC(c4noc5cc(F)ccc45)CC3)ccc12 | 6.39 | 8.41 | 7.51 |  |
| COc1ccccc1N1CCN(CCCOc2ccc3c(C)cc(=O)oc3c2)CC1 |  |  |  | pKi [4]: 6.76; pKi [5]: 7.93; Kb [6]: 0.851 nM |
| CCc1cc(=O)oc2cc(OCCCCN3CCC(c4noc5cc(F)ccc45)CC3)ccc12 | 5.83 | 5.71 | 7.29 |  |
| O=C(CCCN1CCC(O)(c2ccc(Cl)cc2)CC1)c1ccc(F)cc1 [HALOPERIDOL] |  |  |  | selectivity ratio [7]: 1.16; ED50 [8]: 0.09 mg/kg; ED50 [9]: 0.22 mg/kg; selectivity ratio [10]: 2.44; ED50 [11]: 0.19 mg/kg |
| COc1ccccc1N1CCN(CCCCOc2ccc3ccc(=O)oc3c2)CC1 | 6.06 | 6.25 | 5.77 |  |
